How the values were obtained:
[1] = tested on: LNCaP, human prostate cancer; experiment: Growth inhibition by MTS method, LNCaP; assay type: cell-based; settings: 48 hours with compound, read-out: GI50 against LNCaP
Description: (§1) Growth inhibition tests were carried out by MTS method. Approximately 72 hours before the viability assay, cells were seeded into 96-well plates at 5-10×10^3 cells/well (according to the growth rate of individual cell lines used). 24 hours later, the tested compounds at different concentrations were added, and the cells were cultured for 48 hours, then added 20 μl/well of CellTiter 96 AQueous One Solution Reagent containing tetrazolium compound (Promega) into each well. MTS was subsequently added to the culture medium. After incubation of the plates for 2 hours at about 37° C., the absorbance at 490 nm was recorded by a 96-well plate reader. Cell viability was calculated by Atreatment/Acontrol×100% (A represents the absorbance recorded at 490 nm). […] All of the compounds were dissolved in DMSO and were added to the culture at a 1:1000 dilution to give a final DMSO concentration of ≦0.1%. All samples were assayed in duplicate, and each experiment was repeated at least three times.

[2] = tested on: DU-145, human prostate cancer; experiment: Growth inhibition by MTS method, DU-145; assay type: cell-based; settings: 48 hours with compound, read-out: GI50 against DU-145
Description: as §1

[3] = tested on: HL-60, human myloid leukemia; experiment: Growth inhibition by MTS method, HL-60; assay type: cell-based; settings: 48 hours with compound, read-out: GI50 against HL-60
Description: as §1

[4] = tested on: SK-OV-3, human ovary adenocarcinoma; experiment: Growth inhibition by MTS method, SK-OV-3; assay type: cell-based; settings: 48 hours with compound, read-out: GI50 against SK-OV-3
Description: as §1

[5] = tested on: U2OS, human osteocarcinoma; experiment: Growth inhibition by MTS method, U2OS; assay type: cell-based; settings: 48 hours with compound, read-out: GI50 against U2OS
Description: as §1

[6] = tested on: SGC-7901, human gastric adenocarcinoma; experiment: Growth inhibition by MTS method, SGC-7901; assay type: cell-based; settings: 48 hours with compound, read-out: GI50 against SGC-7901
Description: as §1

H292, human lung cancer = experiment: Growth inhibition by MTS method, H292; assay type: cell-based; settings: NCI-H292, 48 hours with compound, read-out: GI50 against H292
Description: as §1

[7] = tested on: HeLa, human cervical carcinoma; experiment: Growth inhibition by MTS method, HeLa; assay type: cell-based; settings: 48 hours with compound, read-out: GI50 against HeLa
Description: as §1

[8] = tested on: HepG2, human hepatoblastoma; experiment: Growth inhibition by MTS method, HepG2; assay type: cell-based; settings: 48 hours with compound, read-out: GI50 against HepG2
Description: as §1

[9] = tested on: MCF-7, human breast adenocarcinoma; experiment: Growth inhibition by MTS method, MCF-7; assay type: cell-based; settings: MCF7, 48 hours with compound, read-out: GI50 against MCF-7
Description: as §1

[10] = tested on: 293, human embryonic kidney; experiment: Growth inhibition by MTS method, 293; assay type: cell-based; settings: 48 hours with compound, read-out: GI50 against 293
Description: as §1

[11] = tested on: SMMC-7721, human hepatoma; experiment: Growth inhibition by MTS method, SMMC-7721; assay type: cell-based; settings: SMMC-721, 48 hours with compound, read-out: GI50 against SMMC-721
Description: as §1

[12] = tested on: Jurkat, human T cell leukemia; experiment: Growth inhibition by MTS method, Jurkat; assay type: cell-based; settings: 48 hours with compound, read-out: GI50 against Jurkat
Description: as §1

[13] = tested on: Raji, human Burkitts Lymphoma; experiment: Growth inhibition by MTS method, Raji; assay type: cell-based; settings: 48 hours with compound, read-out: GI50 against Raji
Description: as §1

[14] = tested on: SK-N-SH, human neuroblastoma; experiment: Growth inhibition by MTS method, SK-N-SH; assay type: cell-based; settings: 48 hours with compound, read-out: GI50 against SK-N-SH
Description: as §1

[15] = tested on: PANC-1, human pancreatic ductal carcinoma; experiment: Growth inhibition by MTS method, PANC-1; assay type: cell-based; settings: 48 hours with compound, read-out: GI50 against PANC-1
Description: as §1

[16] = tested on: HDAC (extract from HeLa cells containing HDAC activity); experiment: HDAC colorimetric activity assay kit (BIOMOL), HeLa cell extract; assay type: biochemical, human
Description: Briefly, the tested compounds at different concentrations were added to 96-well plates, then mixed with extract from HeLa cells containing HDAC activity provided by the manufacturer. HDAC reactions were initiated by adding substrate. 10 minutes later, the reactions were stopped by addition of Color De Lys Developer. Microplates were read in a plate reader at 405 nm. Inhibition of HDAC activity was calculated following the instructions.

28SC, human macrophage = experiment: Growth inhibition by MTS method, 28SC; assay type: cell-based; settings: 48 hours with compound, read-out: GI50 against 28SC
Description: as §1

[17] = tested on: MDA-MB-231, human breast adenocarcinoma; experiment: Growth inhibition by MTS method, MDA-MB-231; assay type: cell-based; settings: 48 hours with compound, read-out: GI50 against 231
Description: as §1

Structure (SMILES)	GI50 [1]	GI50 [2]	GI50 [3]	GI50 [4]	GI50 [5]	GI50 [6]	GI50 (H292, human lung cancer)	GI50 [7]	GI50 [8]	GI50 [9]	GI50 [10]	GI50 [11]	GI50 [12]	GI50 [13]	GI50 [14]	GI50 [15]	GI50 (28SC, human macrophage)	GI50 [17]	further results
Nc1ccccc1NC(=O)c1ccc(CNc2ccc(F)cc2)cc1 [CS02100019, N-(2-aminophenyl)-4-[N-(4-fluorophenyl)aminomethyl]benzamide]	10 µM	50 µM	0.5 µM	50 µM	2.5 µM	50 µM	50 µM	50 µM	3.2 µM	5 µM	25 µM	50 µM	1 µM	2 µM	50 µM	5 µM	2 µM	7.9 µM	IC50 ([16]; HDAC activity, HeLa extract): > 50 µM; % of inhibition of HDAC activity ([16]; concentration 1 μM): 11.3%; % of inhibition of HDAC activity ([16]; concentration 5 μM): 24.9%; % of inhibition of HDAC activity ([16]; concentration 10 μM): 28.4%; % of inhibition of HDAC activity ([16]; concentration 50 μM): 29.8%
Nc1cc(F)ccc1NC(=O)c1ccc(CNC(=O)/C=C/c2cccnc2)cc1 [CS02100055, N-(2-amino-4-fluorophenyl)-4-[N-(Pyridin-3-ylacryloyl)aminomethyl]benzamide]	4 µM	25 µM	0.4 µM	50 µM	2 µM	50 µM	50 µM	40 µM	4 µM	5 µM	50 µM	16 µM	1.5 µM	4 µM	50 µM	6.3 µM	5.8 µM	7.9 µM	
Nc1ccccc1NC(=O)c1ccc(CNC(=O)OCc2cccnc2)cc1 [MS-275, N-(2-aminophenyl)-4-[N-(pyridin-3-ylmethoxycarbonyl)aminomethyl]benzamide, reference compound]	2.5 µM	13 µM	0.32 µM	50 µM	1 µM	50 µM	16 µM	25 µM	3.2 µM	6.3 µM	16 µM	20 µM	1.6 µM	6.3 µM	50 µM	5 µM	4 µM	5 µM	
